{"source": "patent US20170367390A1", "about": "“USE OF ELLAGIC ACID DIHYDRATE IN FOOD PRODUCTS AND NUTRACEUTICALS” (HALO LIFE SCIENCE, LLC, priority 2014, published 2017)", "key": {"[1]": {"test_system": "MEF cells", "assay": "Glucose uptake, 2-NBDG labeling, flow cytometry, MEFs", "type": "cell-based, mouse", "description": "Cellular assays were performed using mouse myoblast C2C12 cells and MEF cells. […] Increased glucose uptake was indicated as increasing signal of 2-NBDG ([…]) in cells. Glucose uptake assays were carried out in a final incubation volume of 50 μl consisting of, 2-NBDG), (100 μM) in 1× Phosphate Buffered Saline w/Ca+, Mg+ (PBS++). The same buffer was used for washing cells. Insulin was used as a positive control. All testing compounds were prepared in 10% DMSO and diluted 1:100 for a final concentration of 0.1% DMSO (vehicle). Cells were culture to 70-90% confluence and then washed twice with PBS++. Cells were incubated for 30 minutes at 37° C. in PBS++. Nuclear stain, HCS CellMask stain (blue, Invitrogen), and/or testing compounds (ellagic acid dihydrate, insulin, or vehicle) were added. Cells were incubated for 30 min at 37° C. Cells were washed twice with PBS++ and incubated with 2-NBDG for 10 minutes. Cells were washed thrice with PBS++ and then imaged in PBS++. Alternatively, the final PBS wash was removed and cells were incubated with Accutase (Invitrogen) for 10 min at 37° C., neutralized with 10% FBS in 1×PBS, and analyzed by flow cytometry. An additional experiment was performed to measure glucose uptake in C2Cl2 cells exposed to metformin, insulin and ellagic acid dihydrate 2 (batch 2). FIG. 5C. Glucose uptake in ellagic acid dihydrate treated cell culture was measured and compared to glucose uptake under insulin or ellagic acid treatment. […] Flow cytometry results were run in triplicate with 1000 cells per batch."}, "[2]": {"assay": "Activity level in mice", "type": "in vivo, mouse", "details": "predicted from in vitro data of Example 5", "from_the_text": "Activity levels in mice treated with ellagic acid dihydrate may be quantified by several procedures, such as those outlined in Turri, M. et al.; QTL Analysis Identifies Multiple Behavioral Dimensions in Ethological Tests of Anxiety in Laboratory Mice; Current Biology; 2001; 11(10): 725-734. Two examples of procedures taught therein follows. Gross Locomotor Activity in Home Cage: Mice are caged singly several days prior to home cage activity monitoring and subsequent testing. Activity in home cages are measured during the first 2 hours of the dark cycle on two consecutive days. Two infrared photo emitter-detector pairs, located outside the clear plastic home cage that divide the cage into three equal areas, are used to record gross locomotor activity on the floor of the home cage as the animal breaks the photo beams. The beam-break activity score consists of the square root of the number of beam breaks for each detector summed across the two test days. Magnitude of Activity in Home Cage: Mice are caged singly several days prior to home cage activity monitoring and subsequent testing. Activity in home cages are measured during the first 2 hours of the dark cycle on two consecutive days. An infrared motion detector located above the top of the home cage is employed to converts all motion sensed within the home cage into arbitrary units, based on the magnitude of activity detected."}, "[3]": {"assay": "Weight loss and blood glucose in female SWV mice with STZ induced diabetes, 30 days gavage", "type": "in vivo, mouse", "details": "STZ diabetic mice; predicted from in vitro data of Example 5", "description": "Weight loss and blood glucose in diabetes induced mice treated with ellagic acid was determined and weight loss and blood glucose in mice treated with ellagic acid dihydrate may be determined by the following procedures. Induction of Diabetes: Diabetes is induced in mice by intraperitoneal injection with Streptozotocin (STZ 40 mg/kg) daily for five days. The mice are considered hyperglycemic when the glucose level of each dam is above 200 mg/dL. The mice are fasted for 4 hours before STZ injection and glucose measurement. Treatment: The mice are treated daily for thirty days with ellagic acid or control in the form of a supplemental pill homogenized and suspended in 25% water solution of Cremophor EL. The mice are treated for one month via gavage using the human equivalent dose of 122.4 mg pill/kg of subject (40.6 mg ellagic acid/kg of the subject), the human equivalent does of 40.6 mg ellagic acid/kg of the subject using 98% pure ellagic acid, or control vehicle (25% water solution of Cremophor EL). The human equivalent dose is calculated as described in Example 8. Treatments would start two weeks after the last STZ injection in which hyperglycemia is confirmed in the diabetic mice. The mice would be weighed daily and glucose levels would be measured in fasted animals every five days."}, "[4]": {"target": "glucose oxidase (Aspergillus niger, UniProt P13006)", "sequence (P13006 17-605, species assumed)": "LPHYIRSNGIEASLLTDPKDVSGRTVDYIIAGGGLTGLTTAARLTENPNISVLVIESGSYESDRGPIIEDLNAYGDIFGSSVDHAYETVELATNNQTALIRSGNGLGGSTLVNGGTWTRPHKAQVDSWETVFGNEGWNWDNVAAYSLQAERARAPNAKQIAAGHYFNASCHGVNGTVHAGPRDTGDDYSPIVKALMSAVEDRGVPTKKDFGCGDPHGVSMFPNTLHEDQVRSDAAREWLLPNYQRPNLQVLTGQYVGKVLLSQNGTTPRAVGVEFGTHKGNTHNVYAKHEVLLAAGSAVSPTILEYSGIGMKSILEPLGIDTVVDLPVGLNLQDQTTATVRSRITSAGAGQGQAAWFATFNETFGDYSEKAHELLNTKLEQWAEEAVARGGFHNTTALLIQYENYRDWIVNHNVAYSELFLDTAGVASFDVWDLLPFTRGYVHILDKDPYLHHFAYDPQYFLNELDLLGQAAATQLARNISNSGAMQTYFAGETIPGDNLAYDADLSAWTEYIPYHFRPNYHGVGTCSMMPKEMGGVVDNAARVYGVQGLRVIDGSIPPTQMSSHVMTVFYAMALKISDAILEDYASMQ", "assay": "Direct interaction with glucose, glucose oxidase based glucometer on serum", "type": "biochemical", "details": "incubated with serum at room temperature five minutes or overnight at 37° C.", "description": "Ellagic acid dihydrate was analyzed for direct interaction with glucose. A glucose oxidase based glucometer was used to measure serum glucose. Ellagic acid dihydrate was incubated with serum at room temperature for five minutes or overnight at 37° C. […] Ellagic acid dihydrate is not believed to directly interact with glucose."}, "[5]": {"test_system": "AKT", "assay": "AKT:Phos AKT ratio by immunocytochemistry, high-content imaging in C2C12", "type": "cell-based, mouse", "details": "serum starved C2C12, 30 minutes; 4 nM-4 μM for insulin and ellagic acid dihydrate", "description": "Stimulation of AKT pathways and MAPK pathways in ellagic acid dihydrate, metformin, and insulin treated cell cultures was performed. Insulin stimulates glucose uptake into cells by increasing GLUT4 activation, and AKT, specifically phos-AKT, signaling alters GLUT4 translocation. […] Cellular assays were performed using mouse myoblast C2C12 cells. […] Serum starved cells (1 hr) were treated for 30 minutes with each of the tested compounds."}, "[6]": {"test_system": "mouse myoblast C2C12 cells", "assay": "Glucose uptake, 2-NBDG labeling, flow cytometry, C2C12", "type": "cell-based", "description": "Cellular assays were performed using mouse myoblast C2C12 cells and MEF cells. […] Increased glucose uptake was indicated as increasing signal of 2-NBDG ([…]) in cells. Glucose uptake assays were carried out in a final incubation volume of 50 μl consisting of, 2-NBDG), (100 μM) in 1× Phosphate Buffered Saline w/Ca+, Mg+ (PBS++). The same buffer was used for washing cells. Insulin was used as a positive control. All testing compounds were prepared in 10% DMSO and diluted 1:100 for a final concentration of 0.1% DMSO (vehicle). Cells were culture to 70-90% confluence and then washed twice with PBS++. Cells were incubated for 30 minutes at 37° C. in PBS++. Nuclear stain, HCS CellMask stain (blue, Invitrogen), and/or testing compounds (ellagic acid dihydrate, insulin, or vehicle) were added. Cells were incubated for 30 min at 37° C. Cells were washed twice with PBS++ and incubated with 2-NBDG for 10 minutes. Cells were washed thrice with PBS++ and then imaged in PBS++. Alternatively, the final PBS wash was removed and cells were incubated with Accutase (Invitrogen) for 10 min at 37° C., neutralized with 10% FBS in 1×PBS, and analyzed by flow cytometry. An additional experiment was performed to measure glucose uptake in C2Cl2 cells exposed to metformin, insulin and ellagic acid dihydrate 2 (batch 2). FIG. 5C."}}, "note": "Entries after “also recorded” stand apart in the source; their conditions may differ.", "data": [{"smiles": "O.O.O=c1oc2c(O)c(O)cc3c(=O)oc4c(O)c(O)cc1c4c23", "note": "[ellagic acid dihydrate]", "values": [{"measurement": "increased glucose uptake (percent change relative to vehicle)", "setting": "[1]; 400 nM exposure, fibroblasts (MEFs), flow cytometry", "value": 47, "unit": "%"}, {"measurement": "dose effect for increasing glucose uptake", "setting": "[1]; MEFs, flow cytometry, 2-NBDG", "value": "dose effect for increasing glucose uptake"}, {"measurement": "increase in glucose uptake compared with ellagic acid or insulin", "setting": "[1]; MEFs, flow cytometry, Example 5", "value": "significantly greater increase in glucose uptake than that seen in ellagic acid (EA) or insulin treatment"}, {"measurement": "glucose uptake (2-NBDG signal) relative to vehicle", "setting": "[1]; MEFs, flow cytometry, vehicle 0.1% DMSO", "value": "significantly greater than vehicle treated"}, {"measurement": "glucose uptake relative to insulin", "setting": "[1]; fibroblasts (MEFs), at most concentrations tested / equal concentrations, dihydrate", "value": "significantly more glucose uptake relative to insulin; also recorded: exceeded the uptake induced by insulin"}, {"measurement": "activity level compared to mice treated with ellagic acid", "setting": "[2]", "value": "significantly greater activity level"}, {"measurement": "mean glucose level values compared to mice treated with ellagic acid", "setting": "[3]", "value": "lower mean glucose level values"}, {"measurement": "weight loss compared to mice treated with ellagic acid", "setting": "[3]", "value": "greater decrease in weight loss"}, {"measurement": "inhibition of the glucose oxidase reaction", "setting": "[4]", "value": "no inhibition of the glucose oxidase reaction was observed"}, {"measurement": "AKT:Phos AKT ratio (log 2 scale) relative to vehicle treated cells", "setting": "[5]", "value": "increase in AKT relative to Phos-AKT signal"}, {"measurement": "increase in glucose uptake compared with metformin", "setting": "[6]; C2C12, at 4000 nm, FIG. 5C (ellagic acid dihydrate batch 2)", "value": "greater increase in glucose uptake than metformin"}, {"measurement": "dose effect for increasing glucose uptake", "setting": "[6]; C2C12, flow cytometry, 2-NBDG", "value": "dose effect for increasing glucose uptake"}, {"measurement": "glucose uptake (2-NBDG signal) relative to vehicle", "setting": "[6]; C2C12, flow cytometry, vehicle 0.1% DMSO", "value": "significantly greater than vehicle treated"}, {"measurement": "increase in glucose uptake in myoblasts relative to fibroblasts", "setting": "[6]; C2C12 myoblasts versus MEF fibroblasts", "value": "~4", "unit": "×"}, {"measurement": "glucose uptake relative to insulin", "setting": "[6]; myoblasts (C2C12), at most concentrations tested / equal concentrations, dihydrate", "value": "significantly more glucose uptake relative to insulin; also recorded: exceeded the uptake induced by insulin"}]}]}
